# Measurements: patent publication US12662465B2, “EGFR inhibitors” (Blueprint Medicines Corporation, priority 2021, dated 2026)
# pIC50: −log10 of the molar value. Like-named read-outs stand apart in the source and are kept apart here.
# Tests used:
# EGFR L858R = target: T1, EGFR L858R (Homo sapiens, UniProt P00533, L858R); assay: Biochemical EGFR inhibition assay (Caliper mobility shift), EGFR L858R; conditions: read-out: Enz EGFR_L858R IC50
# T1 construct: purchased SignalChem E10-122BG
# EGFR (d746-750) = target: T2, EGFR (d746-750) (Homo sapiens, UniProt P00533, DEL746-750); assay: Biochemical EGFR inhibition assay (Caliper mobility shift), EGFR (d746-750); conditions: read-out: Enz EGFR_Exon19-del746-750 IC50
# T2 construct: purchased SignalChem E10-122JG
# T2 sequence (P00533 with tags, fused parts or gaps DEL746-750 limits assumed): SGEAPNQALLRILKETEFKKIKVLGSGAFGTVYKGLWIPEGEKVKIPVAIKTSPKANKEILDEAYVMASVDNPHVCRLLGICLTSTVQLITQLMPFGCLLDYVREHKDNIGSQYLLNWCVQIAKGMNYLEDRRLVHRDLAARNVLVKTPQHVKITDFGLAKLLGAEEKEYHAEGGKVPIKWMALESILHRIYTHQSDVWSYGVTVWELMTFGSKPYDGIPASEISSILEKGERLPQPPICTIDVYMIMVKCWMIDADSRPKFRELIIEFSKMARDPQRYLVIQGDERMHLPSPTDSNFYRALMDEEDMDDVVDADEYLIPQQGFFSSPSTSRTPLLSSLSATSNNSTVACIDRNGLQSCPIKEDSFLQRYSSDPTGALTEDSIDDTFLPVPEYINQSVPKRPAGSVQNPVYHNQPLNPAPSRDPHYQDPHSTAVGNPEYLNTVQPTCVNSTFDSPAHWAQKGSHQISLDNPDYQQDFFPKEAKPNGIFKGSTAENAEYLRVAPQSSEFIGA
# [1] = target: intracellular phosphorylation of EGFR (Tyr1068) in PC-9 cells (Ex19Del) (Homo sapiens, UniProt P00533, DEL746-750); assay: PC-9 pEGFR AlphaLISA assay; type: cell-based; conditions: 4 hours compound incubation, read-out: Ext pEGFR_PC-9 Ex19Del IC50
# Sequence of intracellular phosphorylation of EGFR (Tyr1068) in PC-9 cells (Ex19Del) (P00533 with tags, fused parts or gaps DEL746-750): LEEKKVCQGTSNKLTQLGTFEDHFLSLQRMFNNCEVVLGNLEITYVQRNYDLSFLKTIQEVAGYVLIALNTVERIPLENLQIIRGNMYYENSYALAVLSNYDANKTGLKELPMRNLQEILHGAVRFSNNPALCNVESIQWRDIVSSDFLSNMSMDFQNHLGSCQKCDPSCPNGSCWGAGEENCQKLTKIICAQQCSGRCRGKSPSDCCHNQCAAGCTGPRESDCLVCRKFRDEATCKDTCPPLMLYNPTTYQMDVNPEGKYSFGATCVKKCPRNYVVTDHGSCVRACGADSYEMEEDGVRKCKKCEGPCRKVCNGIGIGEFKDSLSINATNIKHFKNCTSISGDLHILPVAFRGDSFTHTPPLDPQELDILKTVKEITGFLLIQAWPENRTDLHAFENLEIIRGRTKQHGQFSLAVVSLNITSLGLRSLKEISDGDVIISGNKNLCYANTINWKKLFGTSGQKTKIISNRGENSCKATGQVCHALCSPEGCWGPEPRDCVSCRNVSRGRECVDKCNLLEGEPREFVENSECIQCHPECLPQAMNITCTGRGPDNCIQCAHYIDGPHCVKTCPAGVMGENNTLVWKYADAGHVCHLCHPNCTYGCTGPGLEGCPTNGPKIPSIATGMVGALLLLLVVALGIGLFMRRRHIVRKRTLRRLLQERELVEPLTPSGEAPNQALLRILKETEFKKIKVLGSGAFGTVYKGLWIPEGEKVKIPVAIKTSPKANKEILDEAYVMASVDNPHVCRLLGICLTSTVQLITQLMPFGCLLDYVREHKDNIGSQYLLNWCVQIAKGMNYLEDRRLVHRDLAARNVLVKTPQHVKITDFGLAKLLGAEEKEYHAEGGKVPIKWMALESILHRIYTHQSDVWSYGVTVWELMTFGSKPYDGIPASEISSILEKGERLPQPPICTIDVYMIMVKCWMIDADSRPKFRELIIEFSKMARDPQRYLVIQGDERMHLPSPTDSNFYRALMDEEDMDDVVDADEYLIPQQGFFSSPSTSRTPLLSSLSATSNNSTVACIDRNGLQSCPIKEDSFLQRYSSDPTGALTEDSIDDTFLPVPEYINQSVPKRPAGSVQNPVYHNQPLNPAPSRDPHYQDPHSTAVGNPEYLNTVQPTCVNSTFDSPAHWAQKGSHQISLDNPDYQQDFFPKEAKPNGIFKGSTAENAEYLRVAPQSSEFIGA
# [2] = 1.0 mM ATP or ATP Km, room temperature (25° C.)
# T1 sequence (P00533 25-1210 L858R): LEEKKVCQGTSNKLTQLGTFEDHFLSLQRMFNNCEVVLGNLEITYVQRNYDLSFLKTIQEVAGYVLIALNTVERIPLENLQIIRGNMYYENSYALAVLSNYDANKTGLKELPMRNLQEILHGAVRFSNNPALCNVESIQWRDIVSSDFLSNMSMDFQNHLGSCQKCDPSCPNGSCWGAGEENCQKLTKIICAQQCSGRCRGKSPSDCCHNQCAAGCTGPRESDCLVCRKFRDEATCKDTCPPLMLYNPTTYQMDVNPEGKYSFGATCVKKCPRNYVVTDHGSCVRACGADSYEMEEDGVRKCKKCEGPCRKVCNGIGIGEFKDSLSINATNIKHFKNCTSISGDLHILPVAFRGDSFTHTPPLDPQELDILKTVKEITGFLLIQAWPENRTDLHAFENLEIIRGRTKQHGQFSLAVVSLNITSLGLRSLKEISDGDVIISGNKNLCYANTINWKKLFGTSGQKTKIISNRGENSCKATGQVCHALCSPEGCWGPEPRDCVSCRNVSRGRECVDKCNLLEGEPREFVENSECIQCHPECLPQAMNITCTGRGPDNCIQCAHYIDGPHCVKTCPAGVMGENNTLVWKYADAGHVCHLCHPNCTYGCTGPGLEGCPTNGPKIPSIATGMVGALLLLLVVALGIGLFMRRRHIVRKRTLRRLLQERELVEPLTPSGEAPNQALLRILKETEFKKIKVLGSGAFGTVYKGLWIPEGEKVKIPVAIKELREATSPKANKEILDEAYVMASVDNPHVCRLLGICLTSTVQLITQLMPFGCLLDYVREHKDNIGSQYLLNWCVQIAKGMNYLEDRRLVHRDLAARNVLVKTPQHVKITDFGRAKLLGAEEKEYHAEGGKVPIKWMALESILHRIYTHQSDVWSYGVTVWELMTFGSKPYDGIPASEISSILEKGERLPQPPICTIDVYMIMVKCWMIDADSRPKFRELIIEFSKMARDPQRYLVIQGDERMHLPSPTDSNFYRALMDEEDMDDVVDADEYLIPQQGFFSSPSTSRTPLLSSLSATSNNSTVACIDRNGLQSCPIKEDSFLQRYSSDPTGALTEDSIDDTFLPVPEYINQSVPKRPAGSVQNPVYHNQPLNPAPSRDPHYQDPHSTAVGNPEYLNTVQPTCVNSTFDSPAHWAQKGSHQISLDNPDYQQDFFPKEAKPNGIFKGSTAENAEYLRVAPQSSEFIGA
SMILES,pIC50 (EGFR L858R),pIC50 (EGFR (d746-750)),pIC50 [1],pIC50 (EGFR L858R; [2]),pIC50 (EGFR (d746-750); [2])
"C[C@@H](Oc1cc(-c2cnn(C(C)(C)CO)c2)cc2ncnc(Nc3ccc4ncccc4c3F)c12)C1COC1 [Example 47, (R)-2-(4-(4-(5-fluoroquinolin-6-ylamino)-5-(1-(oxetan-3-yl)ethoxy)quinazolin-7-yl)-1H-pyrazol-1-yl)-2-methylpropan-1-ol]",> 8.00,> 8.00,≥ 8.00,–,–
"C[C@H](CN(C)C)Oc1cc(N2CC[C@@H](C(C)(C)O)C2)cc2ncnc(Nc3ccc4ncccc4c3F)c12 [Example 72, 2—((R)-1-(5-(((R)-1-(dimethylamino)propan-2-yl)oxy)-4-((5-fluoroquinolin-6-yl)amino)quinazolin-7-yl)pyrrolidin-3-yl)propan-2-ol]",7.30 to 8.00,> 8.00,7.30 to 8.00,–,–
"C[C@@H](Oc1cc(N2CCC(N(C)C)CC2)cc2ncnc(Nc3ccc4ncccc4c3F)c12)C1COC1 [Example 78, (R)-7-(4-(dimethylamino)piperidin-1-yl)-N-(5-fluoroquinolin-6-yl)-5-(1-(oxetan-3-yl)ethoxy)quinazolin-4-amine]",> 8.00,> 8.00,≥ 8.00,–,–
"CN1CC[C@H](Oc2cc(-c3cnn(C)c3)cc3ncnc(Nc4ccc5ncccc5c4F)c23)C1=O [Example 25, (S)-3-((4-((5-fluoroquinolin-6-yl)amino)-7-(1-methyl-1H-pyrazol-4-yl)quinazolin-5-yl)oxy)-1-methylpyrrolidin-2-one]",> 8.00,> 8.00,7.30 to 8.00,–,–
"C[C@@H](Oc1cc(-c2cnn(C)c2)cc2ncnc(Nc3cc(F)c4ncccc4c3F)c12)C1COC1 [Example 9, (R)—N-(5,8-difluoroquinolin-6-yl)-7-(1-methyl-1H-pyrazol-4-yl)-5-(1-(oxetan-3-yl)ethoxy)quinazolin-4-amine]",> 8.00,> 8.00,≥ 8.00,–,–
"Cn1cc(-c2cc(O[C@@H]3CC[C@@H]3O)c3c(Nc4ccc5ncccc5c4F)ncnc3c2)cn1 (single isomer, unassigned) [Example 16, (1S,2R)-2-((4-((5-fluoroquinolin-6-yl)amino)-7-(1-methyl-1H-pyrazol-4-yl)quinazolin-5-yl)oxy)cyclobutan-1-ol or (1R,2S)-2-((4-((5-fluoroquinolin-6-yl)amino)-7-(1-methyl-1H-pyrazol-4-yl)quinazolin-5-yl)oxy)cyclobutan-1-ol]",–,–,≥ 8.00,> 8.00,> 8.00
"C[C@H](CN(C)C)Oc1cc(N2CCO[C@@H](C(F)F)C2)cc2ncnc(Nc3ccc4ncccc4c3F)c12 (single isomer, unassigned) [Example 99b, 7-((R)-2-(difluoromethyl)morpholino)-5-(((R)-1-(dimethylamino)propan-2-yl)oxy)-N-(5-fluoroquinolin-6-yl)quinazolin-4-amine or 7-((S)-2-(difluoromethyl)morpholino)-5-(((R)-1-(dimethylamino)propan-2-yl)oxy)-N-(5-fluoroquinolin-6-yl)]",–,–,7.30 to 8.00,7.30 to 8.00,> 8.00
"CC(CO)n1cc(-c2cc(O[C@H](C)C3COC3)c3c(Nc4ccc5ncccc5c4F)ncnc3c2)cn1 (mixture of isomers) [Example 119, (R)-2-(4-(4-((5-fluoroquinolin-6-yl)amino)-5-((R)-1-(oxetan-3-yl)ethoxy)quinazolin-7-yl)-1H-pyrazol-1-yl)propan-1-ol and (S)-2-(4-(4-((5-fluoroquinolin-6-yl)amino)-5-((R)-1-(oxetan-3-yl)ethoxy)quinazolin-7-yl)-1H-pyrazol-1-yl)propan-1-ol]",> 8.00,> 8.00,≥ 8.00,–,–
"CCn1cc(-c2cc(OC3CCN(C)CC3)c3c(Nc4ccc5ncccc5c4F)ncnc3c2)c(OC)n1 [Example 117, 7-(1-ethyl-3-methoxy-1H-pyrazol-4-yl)-N-(5-fluoroquinolin-6-yl)-5-((1-methylpiperidin-4-yl)oxy)quinazolin-4-amine]",7.30 to 8.00,> 8.00,7.30 to 8.00,–,–
"C[C@@H](Oc1cc(-c2cnn(CC(C)(C)O)c2)cc2ncnc(Nc3ccc4ncccc4c3F)c12)C1COC1 [Example 48, (R)-1-(4-(4-(5-fluoroquinolin-6-ylamino)-5-(1-(oxetan-3-yl)ethoxy)quinazolin-7-yl)-1H-pyrazol-1-yl)-2-methylpropan-2-ol]",> 8.00,> 8.00,≥ 8.00,–,–

# Second part, the molecule after the results:
pIC50 (EGFR L858R),pIC50 (EGFR (d746-750)),pIC50 [1],pIC50 (EGFR L858R; [2]),pIC50 (EGFR (d746-750); [2]),SMILES
> 8.00,> 8.00,≥ 8.00,–,–,"C[C@H](CN(C)C)Oc1cc(-c2cnn(CC(F)F)c2)cc2ncnc(Nc3ccc4ncccc4c3F)c12 [Example 55, (R)-7-(1-(2,2-difluoroethyl)-1H-pyrazol-4-yl)-5-((1-(dimethylamino)propan-2-yl)oxy)-N-(5-fluoroquinolin-6-yl)quinazolin-4-amine]"
7.30 to 8.00,> 8.00,7.30 to 8.00,–,–,"COc1cc(O[C@H](C)CN(C)C)c2c(Nc3ccc4ncccc4c3F)ncnc2c1 [Example 57, (R)-5-((1-(dimethylamino)propan-2-yl)oxy)-N-(5-fluoroquinolin-6-yl)-7-methoxyquinazolin-4-amine]"
> 8.00,> 8.00,≥ 8.00,–,–,"COCC(CO)[C@@H](C)Oc1cc(-c2cnn(C)c2)cc2ncnc(Nc3ccc4ncccc4c3F)c12 (stereo partly drawn) [Example 112, (3R)-3-((4-((5-fluoroquinolin-6-yl)amino)-7-(1-methyl-1H-pyrazol-4-yl)quinazolin-5-yl)oxy)-2-(methoxymethyl)butan-1-ol]"
–,–,≥ 8.00,> 8.00,> 8.00,"C[C@H](Oc1cc(-c2cnn(C)c2)cc2ncnc(Nc3ccc4ncccc4c3F)c12)C1CCOCC1 [Example 20, (S)—N-(5-fluoroquinolin-6-yl)-7-(1-methyl-1H-pyrazol-4-yl)-5-(1-(tetrahydro-2H-pyran-4-yl)ethoxy)quinazolin-4-amine. or (R)—N-(5-fluoroquinolin-6-yl)-7-(1-methyl-1H-pyrazol-4-yl)-5-(1-(tetrahydro-2H-pyran-4-yl)ethoxy)quinazolin-4-amine]"
> 8.00,> 8.00,≥ 8.00,–,–,"[2H]c1ccc2c(F)c(Nc3ncnc4cc(-c5cnn(C)c5)cc(O[C@H](C)CN(C)C)c34)ccc2n1 [Example 155, (R)-5-((1-(dimethylamino)propan-2-yl)oxy)-N-(5-fluoroquinolin-6-yl-2-d)-7-(1-methyl-1H-pyrazol-4-yl)quinazolin-4-amine]"
> 8.00,> 8.00,≥ 8.00,–,–,"CC[C@H](CN(C)C)Oc1cc(-c2cnn(C)c2)cc2ncnc(Nc3ccc4ncccc4c3F)c12 [Example 24, (R)-5-((1-(dimethylamino)butan-2-yl)oxy)-N-(5-fluoroquinolin-6-yl)-7-(1-methyl-1H-pyrazol-4-yl)quinazolin-4-amine]"
> 8.00,> 8.00,≥ 8.00,–,–,"C[C@H](CN(C)C)Oc1cc(-c2cnn(C)c2)cc2ncnc(Nc3ccc4cccnc4c3)c12 [Example 13, (R)-5-((1-(dimethylamino)propan-2-yl)oxy)-7-(1-methyl-1H-pyrazol-4-yl)-N-(quinolin-7-yl)quinazolin-4-amine]"
7.30 to 8.00,> 8.00,7.30 to 8.00,–,–,"CN(C)CCOc1cc(-c2cnn(C)c2)cc2ncnc(Nc3ccc4ncccc4c3F)c12 [Example 34, 5-(2-(dimethylamino)ethoxy)-N-(5-fluoroquinolin-6-yl)-7-(1-methyl-1H-pyrazol-4-yl)quinazolin-4-amine]"
> 8.00,> 8.00,≥ 8.00,–,–,"COC[C@@H](C)Oc1cc(-c2cnn(C)c2)cc2ncnc(Nc3ccc4ncccc4c3F)c12 [Example 31, (R)—N-(5-fluoroquinolin-6-yl)-5-((1-methoxypropan-2-yl)oxy)-7-(1-methyl-1H-pyrazol-4-yl)quinazolin-4-amine]"
> 8.00,> 8.00,≥ 8.00,–,–,"C[C@H](CN(C)C1CCC1)Oc1cc(-c2cnn(C)c2)cc2ncnc(Nc3ccc4ncccc4c3F)c12 [Example 115, (R)-5-((1-(cyclobutyl(methyl)amino)propan-2-yl)oxy)-N-(5-fluoroquinolin-6-yl)-7-(1-methyl-1H-pyrazol-4-yl)quinazolin-4-amine]"
–,–,≥ 8.00,> 8.00,> 8.00,"C[C@H](O)[C@H](C)Oc1cc(-c2cnn(C)c2)cc2ncnc(Nc3ccc4ncccc4c3F)c12 (single isomer, unassigned) [Example 30, (2S,3S)-3-((4-((5-fluoroquinolin-6-yl)amino)-7-(1-methyl-1H-pyrazol-4-yl)quinazolin-5-yl)oxy)butan-2-ol or (2R,3R)-3-((4-((5-fluoroquinolin-6-yl)amino)-7-(1-methyl-1H-pyrazol-4-yl)quinazolin-5-yl)oxy)butan-2-ol]"
> 8.00,> 8.00,≥ 8.00,–,–,"COc1nn(C)cc1-c1cc(O[C@H](C)CN(C)C)c2c(Nc3ccc4ncccc4c3F)ncnc2c1 [Example 54, (R)-5-((1-(dimethylamino)propan-2-yl)oxy)-N-(5-fluoroquinolin-6-yl)-7-(3-methoxy-1-methyl-1H-pyrazol-4-yl)quinazolin-4-amine]"
7.30 to 8.00,> 8.00,≥ 8.00,–,–,"C[C@H](CN(C)C)Oc1cc(N2CCn3cncc3C2)cc2ncnc(Nc3ccc4ncccc4c3F)c12 [Example 90, (R)-7-(5,6-dihydroimidazo[1,5-a]pyrazin-7(8H)-yl)-5-((1-(dimethylamino)propan-2-yl)oxy)-N-(5-fluoroquinolin-6-yl)quinazolin-4-amine]"
7.30 to 8.00,7.30 to 8.00,< 7.30,–,–,"C[C@H](CN(C)C)Oc1cc(-c2cnn(C)c2)cc2nc[n+]([O-])c(Nc3ccc4ncccc4c3F)c12 (single isomer, unassigned) [Example 128]"
